In brackets after ≈: the same amount, converted by molar mass.
Columns and labels:
Adenosine deaminase = target: T1, Adenosine deaminase (Bos taurus, UniProt P56658); experiment: Resistance to adenosine deaminase (remaining sample measured by HPLC); assay type: in vitro ADME, Calf; conditions: for Remaining ratio (%) 0 min. / remaining at 0.5 h, 500 µM: 0.5 mM test sample, adenosine deaminase, 0.05 M Tris-HCl buffer (pH 7.2), 25 °C; for remaining at 0.5 h, 500 µM: bovine, 30min., read-out: Remaining ratio (%) 30min.
T1 construct: Adenosine deaminase ( Calf inlestine, 400 U/ml glycerin, Boehringer 102091 ); purchased Boehringer 102091; host or cells: calf intestine (tissue-derived enzyme)
T1 sequence (P56658 1-363): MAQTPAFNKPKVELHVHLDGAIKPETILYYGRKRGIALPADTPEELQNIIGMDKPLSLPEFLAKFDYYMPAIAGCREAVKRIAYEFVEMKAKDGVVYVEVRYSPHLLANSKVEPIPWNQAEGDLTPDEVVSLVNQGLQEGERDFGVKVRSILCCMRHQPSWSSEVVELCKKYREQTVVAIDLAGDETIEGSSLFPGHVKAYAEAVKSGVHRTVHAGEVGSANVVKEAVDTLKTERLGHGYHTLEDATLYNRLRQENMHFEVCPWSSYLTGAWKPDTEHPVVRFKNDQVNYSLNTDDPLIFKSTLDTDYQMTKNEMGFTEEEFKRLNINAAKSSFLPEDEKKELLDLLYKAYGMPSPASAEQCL
Description: (2) Resistance to adenosine deaminase:
A solution 0.5 mM of each test sample is prepared by dissolving the test sample in 0.05 M Tris-HCl buffer (pH 7.2). Adenosine deaminase ( Calf inlestine, 400 U/ml glycerin, Boehringer 102091 ) is diluled ten times with 0.05 M Tris-HCl buffer (pH 7.2) to prepare an adenosine deaminase solulion.
0.5 ml of each sample solulion is mixed with 10 µl of adenosine deaminase solution . The mixtures are allowed to stand in a water bath at 25 °C, and 4 µl samples thereof are pipetted off after 0 and 30 minutes. The remaining sample is measured by HPLC under the following conditions. HPLC: Column : Supersher RP-18-4 Eluent : 15% methanol Flow rate : 1.0 ml/min. Temperature : 50°C

L5178Y cells = experiment: Growth inhibition activity against L5178Y cells; assay type: cell-based; conditions: for IC50: Mus musculus, L5178Y cells, incubated at 37 °C for 48 hours, cell number by Coulter counter
Description: (1) Growth inhibition activity against L5178Y cells:
A solution of each test compound is prepared by dissolving the compound in RRMI 1640 medium containing 10% bovine serum. A cell suspension of L5178Y cells, 1.1× 10⁴ cells/ml, each suspension having a volume of 1.8 ml, is added to each test tube. A solution ( 0.2 ml ) of the test compound hereinabove is added thereto and the medium is tightly sealed and incubated at 37 °C for 48 hours. After incubation, the numberof cells is measured using a Coulter counter and the growth ratio of the cells is determined.

[1] = Single administration toxicity in mice; assay type: in vivo; conditions: 10 mg/kg, intra peritoneally in mice
Description: 2 - Fluoroneplanocin A can be applied for an anti-neoplastic agent. Amount of dosage can be determined by considering curative effect, route of administration, ages or body weight of patient, and in general 10 - 500 mg/man/day will be applied. Administration can be done by perorally or parenterally, for example intravenous injection or drop infusion or intramuscular administration.

| SMILES | Remaining ratio (%) 0 min. (Adenosine deaminase) | decomposition by adenosine deaminase (Adenosine deaminase; after 30 minutes of incubation) | remaining at 0.5 h, 500 µM (Adenosine deaminase) | IC50 (L5178Y cells) | growth inhibitory activity against L5178Y cells as compared with that of known neplanocin A (L5178Y cells; relative to neplanocin A) | death [1] |
| --- | --- | --- | --- | --- | --- | --- |
| Nc1nc(F)nc2c1ncn2[C@@H]1C=C(CO)[C@@H](O)[C@H]1O [2-Fluoroneplanocin A, 2-fluoroneplanocin A] | 100% | not decomposed | 100% | 0.06 µg/mL (≈ 0.213 µM) | three times higher levels | No death is observed |
| Nc1ncnc2c1ncn2[C@@H]1C=C(CO)[C@@H](O)[C@H]1O [neplanocin A, Neplanocin A] | 100% | – | 0% | 0.2 µg/mL (≈ 0.76 µM) | – | – |
